Reference: patent US6200985A, “Rapamycin derivatives” (Novartis AG, priority 1995, dated 2001)

Assays:
[1] = tested on: Balb/c spleen cells; assay: Mixed lymphocyte reaction (MLR), murine; format: cell-based, mouse; conditions: inhibition of Balb/c spleen cell proliferation, 5 days co-incubation with irradiated CBA spleen cells; relative to rapamycin
Description: 1. Mixed lymphocyte reaction (MLR)
The Mixed Lymphocyte Reaction was originally developed in connection with allografts, to assess the tissue compatibility between potential organ donors and recipients, and is one of the best established models of immune reaction in vitro. […] The irradiated allogeneic cells induce a proliferative response in the Balb/c spleen cells which can be measured by labeled precursor incorporation into the DNA. […] The inhibitory capacity of the test sample may be compared to rapamycin and expressed as a relative IC50 (i.e. IC50 test sample/IC50 rapamycin).

[2] = tested on: interleukin-6 (IL-6)-dependent mouse hybridoma cell line; assay: IL-6 mediated proliferation (IL-6 PROL); format: cell-based; conditions: inhibition of IL-6 dependent hybridoma proliferation, (3-H)thymidine incorporation; relative to rapamycin
Experimental: 2. IL-6 mediated proliferation (IL-6 PROL)
The capacity of the Compounds of formula I to interfere with growth factor, associated signalling pathways is assessed using an interleukin-6 (IL-6)-dependent mouse hybridoma cell line. The assay is performed in 96-well microtiter plates. […] Following a 66 hour incubation in the absence or presence of a test sample, cells are pulsed with 1 μCi (3-H)thymidine/well for another 6 hours, harvested and counted by liquid scintillation. (3-H)thymidine incorporation into DNA correlates with the increase in cell number and is thus a measure of cell proliferation. […] The inhibitory capacity of the test sample may be compared to rapamycin and expressed as a relative IC50 (i.e. test sample/IC50 rapamycin).

[3] = tested on: myointimal proliferation in balloon-injured carotid artery; assay: Angioplasty (balloon catheterization of the carotid artery); format: in vivo; conditions: rat, per os, daily dose 0.5 to 2.5 mg/kg, day -3 to day +14
Experimental: Under Isofluorane anaesthesia, a Fogarty 2F catheter is introduced into the left common carotid artery via the external carotid and inflated (distension=10 μl H2 O). The inflated balloon is withdrawn along the length of the common carotid three times, the latter two times whilst twisting gently to obtain a uniform de-endothelialization. The cathether is then removed, a ligature placed around the external carotid to prevent bleeding and the animals allowed to recover.
2 groups of 12 RoRo rats (400 g, approximately 24 weeks old) are used for the study: one control group and one group receiving the compound to be tested. The rats are fully randomized during all handling, experimental procedures and analysis.
The compound to be tested is administered p.o. (gavage) starting 3 days before balloon injury (day -3) until the end of the study, 14 days after balloon injury (day +14). Rats are kept in individual cages and allowed food and water ad libidum. […]
Sections 1-2 μm thick are cut from the middle section of each carotid with a hard metal knife on a rotary microtome and stained for 2 min with Giemse-stain. About 5 sections from each carotid are thus prepared and the cross-sectional areal of the media, neointima and the lumen morphometrically evaluated by means of an image analysis system (MCID, Toronto, Canada).

[4] = target: T1, recombinant human macrophilin-12 (FKBP-12) (Homo sapiens, UniProt P62942); assay: Macrophilin binding assay (MBA), competitive binding against immobilized FK-506; conditions: inhibition of biot-MAP binding to immobilized FK-506
T1 construct: biotin (label)
T1 sequence (P62942 whole entry): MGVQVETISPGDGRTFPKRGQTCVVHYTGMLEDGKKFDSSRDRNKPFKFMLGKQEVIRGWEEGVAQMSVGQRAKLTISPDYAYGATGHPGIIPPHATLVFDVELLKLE
Description: 3. Macrophilin binding assay (MBA)
Rapamycin and the structurally related immunosuppressant, FK-506, are both known to bind in vivo to macrophilin-12 (also known as FK-506 binding protein or FKBP-12), and this binding is thought to be related to the immunosuppressive activity of these compounds. […] In this assay, FK-506 coupled to BSA is used to coat microtiter wells. Biotinylated recombinant human macrophilin-12 (biot-MAP) is allowed to bind in the presence or absence of a test sample to the immobilized FK-506. After washing (to remove non-specifically bound macrophilin), bound biot-MAP is assessed by incubation with a streptavidin-alkaline phosphatase conjugate, followed by washing and subsequent addition of p-nitrophenyl phosphate as a substrate. The read-out is the OD at 405 nm. Binding of a test sample to biot-MAP results in a decrease in the amount of biot-MAP bound to the FK-506 and thus in a decrease in the OD405. A dilution series of the test sample allows determination of the concentration resulting in 50% inhibition of the biot-MAP binding to the immobilized FK-506 (IC50). The inhibitory capacity of a test sample is compared to the IC50 of free FK506 as a standard and expressed as a relative IC50 (i.e., IC50 test sample/IC50 -free FK506).

[5] = tested on: rat kidney allograft; assay: Chronic allograft rejection, rat kidney allograft model; format: in vivo; conditions: per os, 0.5 to 2.5 mg/kg, 69-72 days starting day 53-64 after transplantation
Experimental: 10. Chronic Allogaft Rejection
The kidney of a male DA (RT1^a) rat is orthotopically transplanted into a male Lewis (RT1^l) recipient. In total 24 animals are transplanted. All animals are treated with cyclosporine A at 7.5 mg/kg/day per os for 14 days starting on the day of transplantation, to prevent acute cellular rejection. Contralateral nephrectomy is not performed. Each experimental group treated with a distinct dose of a compound of formula I or placebo comprises six animals.
Starting at day 53-64 after transplantation, the recipient animals are treated per os for another 69-72 days with a compound of formula I or receive placebo. At 14 days after transplantation animals are subjected to graft assessment by magnetic resonance imaging (MRI) with perfusion measurement of the kidneys (with comparison of the grafted kidney and the own contralateral kidney). This is repeated at days 53-64 after transplantation and at the end of the experiment. The animals are then autopsied. Rejection parameters such as MRI score, relative perfusion rate of the grafted kidney and histologic score of the kidney allograft for cellular rejection and vessel changes are determined and statistically analyzed.

Row | Compound | relative IC50 (IC50 test sample/IC50 rapamycin) [1] | relative IC50 (test sample/IC50 rapamycin) [2] | myointimal proliferation [3] | relative IC50 (IC50 test sample/IC50 free FK506) [4] | rejection parameters (MRI score, relative perfusion rate of grafted kidney, histologic score) [5]
1 | CO[C@H]1C[C@@H]2CC[C@@H](C)[C@@](O)(O2)C(=O)C(=O)N2CCCC[C@H]2C(=O)O[C@H]([C@H](C)C[C@@H]2CC[C@@H](O)[C@H](OC)C2)CC[C@H](C)/C=C(\C)[C@@H](O)[C@@H](OC)C(=O)[C@H](C)C[C@H](C)/C=C/C=C/C=C/1C [Example 1, 32-Deoxorapamycin] | 0.3 | 0.2 | inhibit myointimal proliferation | 1 | reduction in all above mentioned rejection parameters
2 | CCC#CCO[C@H]1C[C@@H]2CC[C@@H](C)[C@@](O)(O2)C(=O)C(=O)N2CCCC[C@H]2C(=O)O[C@H]([C@H](C)C[C@@H]2CC[C@@H](O)[C@H](OC)C2)C[C@H](O)[C@H](C)/C=C(\C)[C@@H](O)[C@@H](OC)C(=O)[C@H](C)C[C@H](C)/C=C/C=C/C=C/1C [Example 2, 16-pent-2-ynyloxy-32(S)-dihydro rapamycin] | 0.08 | 0.09 | inhibit myointimal proliferation | 2.8 | reduction in all above mentioned rejection parameters
3 | CO[C@H]1C[C@@H]2CC[C@@H](C)[C@@](O)(O2)C(=O)C(=O)N2CCCC[C@H]2C(=O)O[C@H]([C@H](C)C[C@@H]2CC[C@@H](OCCO)[C@H](OC)C2)C[C@H](O)[C@H](C)/C=C(\C)[C@@H](O)[C@@H](OC)C(=O)[C@H](C)C[C@H](C)/C=C/C=C/C=C/1C [Example 5, (32S)-dihydro40-(2-hydroxy)ethyl-rapamycin] | – | – | – | 25 | –
